Experiment [1] concerns the target T1, MKNK1 (Homo sapiens, UniProt Q9BUB5, T385D).
T1 construct: GST (N); purchased Carna Biosciences 02-145; host or cells: insect cells (baculovirus expression system)
In words: MKNK1 kinase high ATP assay (TR-FRET-based). To be noted: 2 mM ATP, 15 min preincubation. The class given is biochemical. Summed up:
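TR-FRET read-out (anti-phospho-S6 Ser236 antibody, Eu/XL665) of biotin-peptide phosphorylation (0.06 μM) at high ATP (2 mM final). Enzyme was GST-MKNK1 full length, T344D, pre-bound to compound for 15 min before a 30 min reaction at 22 °C, pH 7.5. Inhibition scaled between no-inhibitor (0%) and no-enzyme (100%) wells.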

Experiment [2] deals with T1, MKNK1. In words: MKNK1 kinase assay (MKNK1 TR-FRET assay). The class given is biochemical. To be noted: 10 μM ATP, 15 min preincubation. A general note: In TR-FRET formats the signal depends on donor and acceptor labels being close together.

The record followed here is patent publication US20160287589A1, “SUBSTITUTED-IMIDAZOPYRIDAZINES” (BAYER PHARMA AKTIENGESELLSCHAFT, priority 2013, published 2016).

A word on the IC50: it is the concentration at which inhibition is half-maximal. A lower IC50 goes with inhibition by little substance.

T1 sequence (Q9BUB5 1-424 isoform Q9BUB5-2 T344D): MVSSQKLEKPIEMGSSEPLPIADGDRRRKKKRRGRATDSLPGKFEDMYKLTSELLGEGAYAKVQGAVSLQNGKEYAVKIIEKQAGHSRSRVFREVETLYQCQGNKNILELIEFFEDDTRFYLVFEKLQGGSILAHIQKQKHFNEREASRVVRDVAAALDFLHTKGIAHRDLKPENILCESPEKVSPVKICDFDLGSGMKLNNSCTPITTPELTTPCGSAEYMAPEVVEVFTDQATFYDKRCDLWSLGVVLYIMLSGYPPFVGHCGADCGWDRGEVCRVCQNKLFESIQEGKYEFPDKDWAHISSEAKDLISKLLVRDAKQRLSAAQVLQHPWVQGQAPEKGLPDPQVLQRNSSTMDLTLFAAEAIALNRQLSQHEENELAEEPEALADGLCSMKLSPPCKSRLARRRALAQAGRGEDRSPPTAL

With `C[C@H]1COCCN1c1cccc2oc(-c3cnc4ccc(OC[C@@H]5CCC(=O)N5)nn34)cc12` [II-33, (5S)-5-{[(3-{4-[(3S)-3-methylmorpholin-4-yl]-1-benzofuran-2-yl}imidazo[1,2-b]pyridazin-6-yl)oxy]methyl}pyrrolidin-2-one], the half-maximal inhibitory concentration (IC50) against MKNK1 [1] (Table 2b) was found to be 24.4 nM; against MKNK1 [2] (Table 1b), 16.3 nM.

Take `CCN(CCOC)c1nccc2oc(-c3cnc4ccc(OC[C@H]5CCC(=O)N5)nn34)cc12` [III-69, (5R)-5-{[(3-{4-[Ethyl(2-methoxyethyl)amino]furo[3,2-c]pyridin-2-yl}imidazo[1,2-b]pyridazin-6-yl)oxy]methyl}pyrrolidin-2-one]: the concentration for half-maximal inhibition (IC50) against MKNK1 [1] (Table 2c) is 0.1 nM; on MKNK1 [2] (Table 1c), 0.4 nM.

Regarding `C[C@H]1CN(c2nccc3oc(-c4cnc5ccc(OCCCS(C)(=O)=O)nn45)cc23)CCN1` [III-143, 3-{4-[(3S)-3-methylpiperazin-1-yl]furo[3,2-c]pyridin-2-yl}-6-[3-(methylsulfonyl)propoxy] imidazo[1,2-b]pyridazine], the concentration for half-maximal inhibition (IC50) against MKNK1 [1] (Table 2c) was determined as 10 nM; against MKNK1 [2] (Table 1c), 3.7 nM.

As for `COC[C@H]1CCCN1c1cccc2oc(-c3cnc4ccc(OC[C@H]5CCC(=O)N5)nn34)cc12` [II-9, (5R)-5-{[(3-{4-[(2R)-2-(Methoxymethyl)pyrrolidin-1-yl]-1-benzofuran-2-yl}imidazo[1,2-b]pyridazin-6-yl)oxy]methyl}pyrrolidin-2-one], the values for the IC50 against MKNK1 [1] (Table 2b) and against MKNK1 [2] (Table 1b) were 0.6 nM and 0.8 nM, respectively.

Regarding `CC(=O)N[C@H]1C[C@H](Oc2ccc3ncc(-c4cc5ccccc5o4)n3n2)C1` [Example I-11, N-(trans-3-{[3-(1-Benzofuran-2-yl)imidazo[1,2-b]pyridazin-6-yl]oxy}cyclobutyl)-acetamide], the IC50 was determined as 10 nM against MKNK1 [1] (Table 2a) and 2.9 nM at MKNK1 [2] (Table 1a).

As to `C[C@H]1CNCCN1c1cccc2oc(-c3cnc4ccc(OC[C@H]5CCC(=O)N5)nn34)cc12` [II-30, (5R)-5-{[(3-{4-[(2S)-2-methylpiperazin-1-yl]-1-benzofuran-2-yl}imidazo[1,2-b]pyridazin-6-yl)oxy]methyl}pyrrolidin-2-one], the IC50 on MKNK1 [1] (Table 2b) is 0.6 nM; at MKNK1 [2] (Table 1b), 2.3 nM.

In the case of `CN1CCN(c2nccc3oc(-c4cnc5ccc(O[C@H]6C[C@@H](N)C6)nn45)cc23)CC1` [III-96, cis-3-({3-[4-(4-Methylpiperazin-1-yl)furo[3,2-c]pyridin-2-yl]imidazo[1,2-b]pyridazin-6-yl}oxy)cyclobutanamine], the IC50 came to 3.4 nM at MKNK1 [1] (Table 2c) and 3.9 nM against MKNK1 [2] (Table 1c).

With `O=C(CO)N1CCC[C@H]1CCOc1ccc2ncc(-c3cc4ccccc4o3)n2n1` [Example I-59, 1-[(2S)-2-(2-{[3-(1-Benzofuran-2-yl)imidazo[1,2-b]-pyridazin-6-yl]oxy}ethyl)pyrrolidin-1-yl]-2-hydroxyethanone], the half-maximal inhibitory concentration (IC50) at MKNK1 [1] (Table 2a) stood at 5.3 nM; against MKNK1 [2] (Table 1a) it was 2.8 nM.

Regarding `O=C(NCCOc1ccc2ncc(-c3cc4ccccc4o3)n2n1)C1CC1` [Example I-15, N-(2-{[3-(1-Benzofuran-2-yl)imidazo[1,2-b]pyridazin-6-yl]oxy}ethyl)-cyclopropanecarboxamide], the 50% inhibitory concentration (IC50) against MKNK1 [1] (Table 2a) is 12.5 nM; on MKNK1 [2] (Table 1a) it was 5.6 nM.

As for `O=C(C1CC1)N1CCC[C@H]1CCOc1ccc2ncc(-c3cc4ccccc4o3)n2n1` [Example I-1, [(2S)-2-(2-{[3-(1-Benzofuran-2-yl)imidazo[1,2-b]pyridazin-6-yl]oxy}ethyl)-pyrrolidin-1-yl](cyclopropyl)methanone], the figures for the IC50 on MKNK1 [1] (Table 2a) and against MKNK1 [2] (Table 1a) were 2.3 nM and 1 nM, respectively.

In the case of `COCCN(C)c1nccc2oc(-c3cnc4ccc(O[C@H](C)CN)nn34)cc12` [III-34, 2-(6-{[(2R)-1-Aminopropan-2-yl]oxy}imidazo[1,2-b]pyridazin-3-yl)-N-(2-methoxyethyl)-N-methylfuro[3,2-c]pyridin-4-amine], the results for the IC50 on MKNK1 [1] (Table 2c) and against MKNK1 [2] (Table 1c) were 7.4 nM and 3.5 nM, respectively.

For the molecule `CN(C)[C@@H]1CCN(c2nccc3oc(-c4cnc5ccc(OCCCS(C)(=O)=O)nn45)cc23)C1` [III-46, (3R)—N,N-Dimethyl-1-(2-{6-[3-(methylsulfonyl)propoxy]imidazo[1,2-b]pyridazin-3-yl}furo[3,2-c]pyridin-4-yl)pyrrolidin-3-amine], the values for the half-inhibitory concentration (IC50) at MKNK1 [1] (Table 2c) and against MKNK1 [2] (Table 1c) were 3.6 nM and 3.9 nM, respectively.

Consider `COc1nccc2oc(-c3cnc4ccc(OC[C@H]5CN(C(=O)C6CC6)CCO5)nn34)cc12` [IV-8, Cyclopropyl[(2R)-2-({[3-(4-methoxyfuro[3,2-c]pyridin-2-yl)imidazo[1,2-b]-pyridazin-6-yl]oxy}methyl)morpholin-4-yl]methanone], for which the half-inhibitory concentration (IC50) on MKNK1 [1] (Table 2d) stood at 10 nM; at MKNK1 [2] (Table 1d) it was 4 nM.

With `C[C@@H]1CN(c2nccc3oc(-c4cnc5ccc(OC[C@H]6CCC(=O)N6)nn45)cc23)C[C@H](C)O1` [III-72, (5R)-5-{[(3-{4-[(2R,6S)-2,6-Dimethylmorpholin-4-yl]furo[3,2-c]pyridin-2-yl}imidazo[1,2-b]pyridazin-6-yl)oxy]methyl}pyrrolidin-2-one], the IC50 against MKNK1 [1] (Table 2c) was found to be 2 nM; at MKNK1 [2] (Table 1c), 1 nM.

Turning to `COc1ccc2ncc(-c3cc4c(N5CCNC[C@@H]5C)cccc4o3)n2n1` [II-28, 6-methoxy-3-{4-[(2S)-2-methylpiperazin-1-yl]-1-benzofuran-2-yl}imidazo[1,2-b]pyridazine], the results for the IC50 against MKNK1 [1] (Table 2b) and on MKNK1 [2] (Table 1b) were 0.7 nM and 5.1 nM, respectively.

On to `CN(C)[C@@H]1CCN(c2nccc3oc(-c4cnc5ccc(OC[C@H]6CCC(=O)N6)nn45)cc23)C1` [III-64, (5R)-5-{[(3-{4-[(3R)-3-(Dimethylamino)pyrrolidin-1-yl]furo[3,2-c]pyridin-2-yl}imidazo[1,2-b]pyridazin-6-yl)oxy]methyl}pyrrolidin-2-one], for which the 50% inhibitory concentration (IC50) on MKNK1 [1] (Table 2c) was 0.1 nM; at MKNK1 [2] (Table 1c), 0.4 nM.

On to `COC[C@H]1CCCN1c1nccc2oc(-c3cnc4ccc(OC[C@H]5CCC(=O)N5)nn34)cc12` [III-78, (5R)-5-{[(3-{4-[(2R)-2-(Methoxymethyl)pyrrolidin-1-yl]furo[3,2-c]pyridin-2-yl}imidazo[1,2-b]pyridazin-6-yl)oxy]methyl}pyrrolidin-2-one], for which the half-maximal inhibitory concentration (IC50) on MKNK1 [1] (Table 2c) stood at 1.2 nM; against MKNK1 [2] (Table 1c), 0.2 nM.

As to `CC(C)(C)COc1nccc2oc(-c3cnc4ccc(OC[C@H]5CCC(=O)N5)nn34)cc12` [IV-5, (5R)-5-[({3-[4-(2,2-Dimethylpropoxy)furo[3,2-c]pyridin-2-yl]imidazo[1,2-b]-pyridazin-6-yl}oxy)methyl]pyrrolidin-2-one], the IC50 on MKNK1 [1] (Table 2d) was 4 nM; against MKNK1 [2] (Table 1d) it was 2 nM.

Take `c1cc2oc(-c3cnc4ccc(OC[C@H]5CCCCN5)nn34)cc2c(N2CCOCC2)n1` (stereo in doubt) [III-140, 3-[4-(morpholin-4-yl)furo[3,2-c]pyridin-2-yl]-6-(piperidin-2-ylmeth-oxy)imidazo[1,2-b]pyridazine]: the 50% inhibitory concentration (IC50) is 183 nM on MKNK1 [1] (Table 2c) and 80 nM at MKNK1 [2] (Table 1c).

Turning to `CC1(C)CN(c2cccc3oc(-c4cnc5ccc(OC[C@@H]6CCC(=O)N6)nn45)cc23)CCO1` [II-63, (5S)-5-[({3-[4-(2,2-dimethylmorpholin-4-yl)-1-benzofuran-2-yl]imidazo[1,2-b]pyridazin-6-yl}oxy)methyl]pyrrolidin-2-one], the half-inhibitory concentration (IC50) on MKNK1 [1] (Table 2b) was found to be 39.5 nM; against MKNK1 [2] (Table 1b), 15.2 nM.

As to `C[C@@H]1CNCCN1c1cccc2oc(-c3cnc4ccc(OC[C@H]5CCC(=O)N5)nn34)cc12` [II-65, (5R)-5-{[(3-{4-[(2R)-2-methylpiperazin-1-yl]-1-benzofuran-2-yl}imidazo[1,2-b]pyridazin-6-yl)oxy]methyl}pyrrolidin-2-one], the figures for the IC50 against MKNK1 [1] (Table 2b) and at MKNK1 [2] (Table 1b) were 1.3 nM and 0.9 nM, respectively.

Regarding `C[C@@H]1CN(c2cccc3oc(-c4cnc5ccc(O[C@H]6C[C@H](N)C6)nn45)cc23)CCO1` [II-73, trans-3-[(3-{4-[(2R)-2-methylmorpholin-4-yl]-1-benzofuran-2-yl}imidazo[1,2-b]pyridazin-6-yl)oxy]cyclobutanamine], the values for the 50% inhibitory concentration (IC50) against MKNK1 [1] (Table 2b) and against MKNK1 [2] (Table 1b) were 47.6 nM and 42.4 nM, respectively.

Turning to `CC1(C)CN(c2cccc3oc(-c4cnc5ccc(OC[C@H]6CCC(=O)N6)nn45)cc23)CCO1` [II-74, (5R)-5-[({3-[4-(2,2-dimethylmorpholin-4-yl)-1-benzofuran-2-yl]imidazo[1,2-b]pyridazin-6-yl}oxy)methyl]pyrrolidin-2-one], the IC50 against MKNK1 [1] (Table 2b) came out at 11.2 nM; on MKNK1 [2] (Table 1b), 4.1 nM.

Regarding `COC(=O)N1CCC[C@H]1CCOc1ccc2ncc(-c3cc4ccccc4o3)n2n1` [Example I-10, Methyl (2S)-2-(2-{[3-(1-benzofuran-2-yl)imidazo[1,2-b]pyridazin-6-yl]oxy}-ethyl)pyrrolidine-1-carboxylate], the values for the concentration for half-maximal inhibition (IC50) on MKNK1 [1] (Table 2a) and against MKNK1 [2] (Table 1a) were 9.9 nM and 3.2 nM, respectively.

For `O=C(C1CCCC1)N1CCC[C@H]1CCOc1ccc2ncc(-c3cc4ccccc4o3)n2n1` [Example I-56, [(2S)-2-(2-{[3-(1-Benzofuran-2-yl)imidazo[1,2-b]-pyridazin-6-yl]oxy}ethyl)pyrrolidin-1-yl](cyclopentyl)-methanone], the IC50 against MKNK1 [1] (Table 2a) was 3.8 nM; against MKNK1 [2] (Table 1a) it was 4 nM.

Turning to `C[C@@H](N)COc1ccc2ncc(-c3cc4c(N5CCOC(C)(C)C5)nccc4o3)n2n1` [III-124, (2R)-1-({3-[4-(2,2-dimethylmorpholin-4-yl)furo[3,2-c]pyridin-2-yl]imidazo[1,2-b]pyridazin-6-yl}oxy)propan-2-amine], the concentration for half-maximal inhibition (IC50) at MKNK1 [1] (Table 2c) amounted to 13.9 nM; on MKNK1 [2] (Table 1c), 16.8 nM.
